41 molecules from patent publication US20230000869A1, “NOVEL ALK2 INHIBITORS AND METHODS FOR INHIBITING BMP SIGNALING” (The Brigham and Women's Hospital, Inc., priority 2017, published 2023) can be followed below.

One assay addresses T1, ALK2 (Mus musculus, UniProt P37172).
T1 construct: endogenous in cells; host or cells: C2C12-BRE (BRE-Luc reporter line, G418 selection)
T1 sequence (P37172 21-509): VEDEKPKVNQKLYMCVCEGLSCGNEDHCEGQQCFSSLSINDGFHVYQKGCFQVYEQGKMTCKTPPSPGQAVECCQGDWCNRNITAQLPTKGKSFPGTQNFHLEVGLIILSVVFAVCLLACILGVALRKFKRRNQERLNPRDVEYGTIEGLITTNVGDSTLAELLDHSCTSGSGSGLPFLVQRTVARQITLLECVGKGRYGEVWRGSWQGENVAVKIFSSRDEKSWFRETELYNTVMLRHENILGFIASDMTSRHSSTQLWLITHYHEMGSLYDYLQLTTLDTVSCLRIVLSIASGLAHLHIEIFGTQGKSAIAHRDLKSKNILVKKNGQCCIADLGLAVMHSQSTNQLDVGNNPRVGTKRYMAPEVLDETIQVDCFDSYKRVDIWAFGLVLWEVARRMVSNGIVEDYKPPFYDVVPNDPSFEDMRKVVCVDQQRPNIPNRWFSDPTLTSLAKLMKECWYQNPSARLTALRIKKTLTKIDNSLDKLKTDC
Put plainly: Luciferase reporter gene assay for ALK2 activity (C2C12 BRE-Luc SMAD1/5/8 reporter, BMP6 agonist). Format: cell-based. The following applies: BMP6 50 ng/mL. The method, then:
(§1) All cell lines were cultured in DMEM, supplemented with […] and 1% Pen/Strep. All media reagents were obtained from Gibco. BMP6, BMP9, and TGFβ were obtained from R&D Systems. C2C12-BRE and HEK293T-SBE were kept in selection with 400 ug/mL G418 from Invivogen.
(§2) In this reporter gene cell based ALK2 and TGFβ assay, the C2C12 cell line was employed for the measurement of ALK2 activity, using a BRE-Luc SMAD1/5/8 reporter and BMP6 as the agonist. The HEK293T cell line was employed to measure TGFβ activity, using a SBE-Luc SMAD2/3 reporter and TGFβ as the agonist. Luciferase reporter assays were read using Promega Steady-Glo Luciferase Assay System.
(§3) Cells were plated in 96 well white clear bottom assay plates at 10 k cells/well for C2C12-BRE, 15 k cells/well for HEK293-SBE in DMEM containing 2% FBS 1% P/S. Cells were given a minimum of 4 hours in incubator at 37° C./5% CO2 to adhere prior to further treatment. Compounds were diluted in DMSO to a 10-point dilution curve and added to the plate to reach the following final concentrations: 10000, 3000, 1000, 300, 100, and 30 nM in the HEK293-SBE assay and 1000, 300, 100, 30, 10, 3, 1, 0.3 nM in the C2C12-BRE assay. Negative and positive control wells received 2 μL DMSO as vehicle treatment. Plates were returned to incubator for 45 minutes and then BMP6 and TGFB were added to a final concentration of 50 ng/mL and 5 ng/mL, respectively. Plates were returned to the incubator and left overnight. After a minimum of 18 hours post BMP6/TGFβ addition, the plates were read using Promega Steady-Glo Luciferase Assay System. A 1:1 mixture of prepared steady-glo and phenol free DMEM was prepared, and 50 μL/well was added to the assay plates whose media had been flicked off. Plates were given 10 minutes post steady-glo addition before luminescence was read on a Spectramax M5e microplate reader. Negative control wells were averaged and subtracted from all other wells on the plate. Inhibition was calculated as the percent of signal loss compared to the averaged positive control wells.

The subject of the next assay is TGFβ. Put plainly: Luciferase reporter gene assay for TGFβ activity (HEK293T SBE-Luc SMAD2/3 reporter, TGFβ agonist). Type of assay: cell-based. The following applies: Homo sapiens, HEK-293T, TGFβ 5 ng/mL. The method, then: as §1, §2, §3
On the technique in general: In a reporter assay the amount or activity of a reporter protein is the signal.

As for `CN1CCN(C2CCN(c3cnc4c(-c5ccnc6cc(F)c(Cl)cc56)cnn4c3)CC2)CC1` [Compound 240], the values for the IC50 at ALK2 and with TGFβ were 0.016 µM and 0.291 µM, respectively.
The matching figures for `COc1cc(-c2cnn3cc(N4CCC(N5CCN(C)CC5)CC4)cnc23)cc(OC)c1OC` [Compound 274]: 0.032 µM and 0.321 µM.
As for `Cc1cc(-c2cnn3cc(N4CCC(N5CCN(C)CC5)CC4)cc(OC4CCOCC4)c23)c2ccccc2n1` [Compound 223], the IC50 – broadly, the concentration that inhibits the measured activity by half – at ALK2 was 0.272 µM; in the assay on TGFβ, above 3 µM.
The matching figures for `CCN1CCN(C2CCN(c3cnc4c(-c5ccnc6cc(F)c(OC)cc56)cnn4c3)CC2)CC1` [Compound 40]: 0.114 µM and 0.327 µM.
On the same counts, the results for `COc1cc2c(-c3cnn4cc(N5CCC(N6CC7CCC(C6)N7C)CC5)cnc34)ccnc2cc1F` [Compound 53] are 0.009 µM and 0.198 µM.
`CNC(=O)c1cc(-c2cnn3cc(N4CCC(N5CCN(C)CC5)CC4)cnc23)ccn1` [Compound 258]: the figures for the IC50 at ALK2 and with TGFβ were 0.197 µM and 0.964 µM, respectively.
As for `COc1ccc2c(-c3cnn4cc(N5CCC(N6CCN(C)CC6)CC5)cnc34)ccnc2c1` [Compound 254], the results for the IC50 at ALK2 and with TGFβ were 0.244 µM and above 1 µM, respectively.
On the same counts, the results for `Cc1cc(-c2cnn3cc(N4CCN(C5CCOCC5)CC4)cnc23)c2ccccc2n1` [Compound 22] are 0.261 µM and 0.086 µM.
The matching figures for `NC(=O)c1cccc2c(-c3cnn4cc(N5CCC(N6CCOCC6)CC5)cnc34)cccc12` [Compound 13]: 0.056 µM and 0.261 µM.
On the same counts, the results for `CN1CCN(C2CCN(c3cnc4c(-c5ccnc6cc[nH]c56)cnn4c3)CC2)CC1` [Compound 228] are 0.476 µM and 0.605 µM.
For `CN1CCN(C2CCN(c3cnc4c(-c5ccnc6cc(F)ccc56)cnn4c3)CC2)CC1` [Compound 256], the IC50 stood at 0.01 µM on ALK2 and 0.104 µM with TGFβ.
As for `[2H]C([2H])([2H])c1ccc2nccc(-c3cnn4cc(N5CCC(N6CCN(C)CC6)CC5)cnc34)c2c1` [Compound 320], the IC50 at ALK2 worked out at 0.027 µM; in the assay on TGFβ it was 0.605 µM.
On the same counts, the results for `CN1CCN(C2CCN(c3cc(OC4CCOCC4)c4c(-c5cn[nH]c5)cnn4c3)CC2)CC1` [Compound 225] are above 1 µM and above 3 µM.
The matching figures for `Cc1cc2c(-c3cnn4cc(N5CC(N6CCOCC6)C5)cnc34)ccnc2cc1F` [Example 301]: 0.018 µM and below 0.02 µM.
On the same counts, the results for `Cc1cc(-c2cnn3cc(N4CC5(CN(C)C5)C4)cnc23)c2ccccc2n1` [Example 298] are 0.003 µM and below 0.001 µM.
`Cc1cc(-c2cnn3cc(N4CC(c5ccncc5)C4)cnc23)c2ccccc2n1` [Compound 210]: the IC50 at ALK2 was determined as 0.017 µM; in the assay with TGFβ, 0.091 µM.
On the same counts, the results for `COc1cc2c(-c3cnn4cc(N5CCC(N6CCS(=O)(=O)CC6)CC5)cnc34)ccnc2cc1F` [Compound 46] are 0.108 µM and 0.454 µM.
On to `CN1CCN(C2CCN(c3cnc4c(-c5cnn(C)c5)cnn4c3)CC2)CC1` [Compound 246], for which the IC50 on ALK2 and in the assay with TGFβ was above 1 µM in each case.
Regarding `Cc1cc(-c2cnn3cc(N4CCN(C5CCNCC5)CC4)cnc23)c2ccccc2n1` [Compound 23], the IC50 was 0.145 µM at ALK2 and 0.088 µM with TGFβ.
Regarding `COc1ccc2nccc(-c3cnn4cc(N5CC(N6CCN(C)CC6)C5)cnc34)c2c1` [Compound 221], the IC50 turned out to be 0.006 µM on ALK2 and 0.277 µM with TGFβ.
As to `CN1CCN(C2CCN(c3cnc4c(-c5cc(N)nc6ccccc56)cnn4c3)CC2)CC1` [Compound 229], the IC50 on ALK2 was 0.052 µM; with TGFβ, 0.009 µM.
On the same counts, the results for `COc1cc2c(-c3cnn4cc(N5CCC(N6CCCN(C)CC6)CC5)cnc34)ccnc2cc1F` [Compound 42] are 0.009 µM and 0.059 µM.
On the same counts, the results for `COc1cc2c(-c3cnn4cc(N5CCC(C)(N6CCN(C)CC6)CC5)cnc34)ccnc2cc1F` [Compound 57] are 0.207 µM and above 1 µM.
Regarding `CCOc1ccc2nccc(-c3cnn4cc(N5CCC(N6CCN(C)CC6)CC5)cnc34)c2c1` [Compound 21], the IC50 on ALK2 was 0.027 µM; in the assay on TGFβ it was 1.28 µM.
As to `COc1cc2c(-c3cnn4cc(N5CCC(N6CCN(C)CC6)C5)cnc34)ccnc2cc1F` (stereo not shown) [Compound 48], the IC50 at ALK2 came out at 0.05 µM; in the assay on TGFβ, 0.914 µM.
The matching figures for `CN1CCN(C2CCN(c3cnc4c(-c5ccnc6cc7c(cc56)OCO7)cnn4c3)CC2)CC1` [Compound 18]: 0.029 µM and 0.176 µM.
The matching figures for `COc1cc2c(-c3cnn4cc(N5CCC(N6CCN(C)CC6=O)CC5)cnc34)ccnc2cc1F` [Compound 329]: above 1 µM and above 3 µM.
Regarding `COc1cc2c(-c3cnn4cc(N5CCC(N6CCN(C)CC(F)(F)C6)CC5)cnc34)ccnc2cc1F` [Compound 206], the IC50 at ALK2 is 0.356 µM; with TGFβ, 0.817 µM.
On the same counts, the results for `CN1CCN(C2CCN(c3cnc4c(-c5ccnc6cc(Cl)ccc56)cnn4c3)CC2)CC1` [Compound 244] are 0.03 µM and 0.328 µM.
The matching figures for `COc1cc2c(-c3cnc4cc(N5CC(N6CCN(C)CC6)C5)cnn34)ccnc2cc1F` [Compound 335]: 0.047 µM and above 2 µM.
In the case of `COc1cc2c(-c3cnn4cc(N5CCC(N6CCN(C)CC6)CC5)ccc34)ccnc2cc1F` [Compound 230], the figures for the concentration for half-maximal inhibition (IC50) on ALK2 and with TGFβ were 0.046 µM and 0.505 µM, respectively.
On the same counts, the results for `Cc1cc(-c2cnn3cc(N4CC5(CC(N(C)C)C5)C4)cnc23)c2ccccc2n1` [Compound 337] are 0.009 µM and below 0.001 µM.
The matching figures for `Cc1cc2c(-c3cnn4cc(N5CCC(N6CCN(C)CC6)CC5)cnc34)ccnc2cc1F` [Compound 266]: 0.017 µM and 0.138 µM.
Consider `NC(=O)c1ccc(-c2cnn3cc(N4CCC(N5CCOCC5)CC4)cnc23)c2ccccc12` [Compound 12], for which the IC50 on ALK2 was found to be 0.087 µM; with TGFβ, 0.458 µM.
On the same counts, the results for `CN1CCN(C2CCN(c3cnc4c(-c5cccc(P(C)(C)=O)c5)cnn4c3)CC2)CC1` [Compound 64] are 0.028 µM and above 3 µM.
On the same counts, the results for `COc1cc2c(-c3cnn4cc(N5CCC(N6CCN(C)C(=O)C6)CC5)cnc34)ccnc2cc1F` [Compound 323] are 0.194 µM and above 1 µM.
Consider `CN1CCN(C2CCN(c3cnc4c(-c5ccnc6c(F)cccc56)cnn4c3)CC2)CC1` [Compound 260], for which the figures for the IC50 on ALK2 and in the assay on TGFβ were 0.012 µM and 0.229 µM, respectively.
The matching figures for `Cc1cc(-c2cnn3cc(N4CCN(c5ccncc5)CC4)cnc23)c2ccccc2n1` [Compound 27]: 0.007 µM and 0.01 µM.
On to `COc1cc2c(-c3cnn4cc(N5CCC6(CCN(C)CC6)CC5)cnc34)ccnc2cc1F` [Compound 217], for which the values for the IC50 at ALK2 and with TGFβ were 0.033 µM and 0.116 µM, respectively.
With `Cc1cc(-c2cnn3cc(N4CCN(CC(C)(C)O)CC4)cnc23)c2ccccc2n1` [Compound 198], the IC50 was determined as 0.3 µM at ALK2 and 0.283 µM in the assay on TGFβ.
`CS(=O)(=O)c1cccc(-c2cnn3cc(N4CCNCC4)cnc23)c1` [Compound 212]: the results for the IC50 on ALK2 and in the assay with TGFβ were 0.038 µM and 0.76 µM, respectively.
